# Source: publication PMC6515290, “Gypenoside LXXV Promotes Cutaneous Wound Healing In Vivo by Enhancing Connective Tissue Growth Factor Levels Via the Glucocorticoid Receptor Pathway” (Molecules, 2019)
# Target: T1, glucocorticoid receptor (GR) (Homo sapiens, UniProt P04150)
# T1 construct: gene NR3C1
# T1 sequence (P04150 1-777): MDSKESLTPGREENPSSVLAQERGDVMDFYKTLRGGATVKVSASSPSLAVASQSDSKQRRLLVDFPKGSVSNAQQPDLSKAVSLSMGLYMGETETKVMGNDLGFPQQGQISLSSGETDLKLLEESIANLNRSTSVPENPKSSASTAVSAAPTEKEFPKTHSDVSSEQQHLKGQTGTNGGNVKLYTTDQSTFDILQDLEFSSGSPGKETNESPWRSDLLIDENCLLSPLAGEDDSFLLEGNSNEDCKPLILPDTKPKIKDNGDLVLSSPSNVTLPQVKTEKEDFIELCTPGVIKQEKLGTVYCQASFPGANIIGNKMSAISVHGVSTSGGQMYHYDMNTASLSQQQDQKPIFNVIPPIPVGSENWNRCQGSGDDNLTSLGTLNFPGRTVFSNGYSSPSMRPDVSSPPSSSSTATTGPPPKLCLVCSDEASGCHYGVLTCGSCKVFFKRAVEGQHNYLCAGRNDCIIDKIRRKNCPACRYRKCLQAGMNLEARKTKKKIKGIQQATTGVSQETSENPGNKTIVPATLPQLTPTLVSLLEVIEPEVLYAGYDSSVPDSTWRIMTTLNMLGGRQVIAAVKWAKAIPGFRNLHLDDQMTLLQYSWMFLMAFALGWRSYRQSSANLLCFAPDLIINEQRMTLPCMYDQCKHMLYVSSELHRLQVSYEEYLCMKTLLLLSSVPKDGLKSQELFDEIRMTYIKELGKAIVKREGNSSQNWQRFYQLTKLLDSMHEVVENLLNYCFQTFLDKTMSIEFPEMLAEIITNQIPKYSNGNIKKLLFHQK
# Experiment: PolarScreen GR competitor assay, fluorescence polarization displacement of Fluormone
# Format: binding
structure (smiles),measurement,value
"CC(C)=CCC[C@](C)(O[C@@H]1O[C@H](CO[C@@H]2O[C@H](CO)[C@@H](O)[C@H](O)[C@H]2O)[C@@H](O)[C@H](O)[C@H]1O)[C@H]1CC[C@]2(C)[C@@H]1[C@H](O)C[C@@H]1[C@@]3(C)CC[C@H](O)C(C)(C)[C@@H]3CC[C@]12C [G75, Gypenoside LXXV]",IC50,52.8 nM
